The record followed here is patent US9340590B2 (priority 2011, dated 2016).

Like-named read-outs stand apart in the source and are kept apart here. Positions of bridges follow the written chain, without caps; N, C: chain ends. Non-standard residues stand in square brackets, D forms with d. Residues, ends and D or L forms follow the SMILES beside them. 1Nal = N[C@@H](Cc1cccc2ccccc12)C(=O)O; 2Pal = N[C@@H](Cc1ccccn1)C(=O)O

What all share (assay): cell-based
The target in test [1] is hNav1.3 (Homo sapiens, UniProt Q9NY46). Particulars: IonWorks Quattro, read-out: IWQ Use Nav1.3. On the technique in general: The patch-clamp technique gives a direct electrical read-out from membranes.
Test [2] deals with hNav1.5 (Homo sapiens, UniProt Q14524).
For test [3], the target named is hNav1.7 (Homo sapiens, UniProt Q15858). Type of test: cell-based. Particulars: IonWorks Quattro.
[4] abbreviates: IonWorks Quattro, use-dependent, […], read-out: IWQ Use Nav1.5.
Setting [5] is: Table 25, IonWorks Quattro, use, […], read-out: IWQ Use Nav1.5.
Where [6] appears, read: Table 25, use, […], read-out: IWQ Use Nav1.7.

Sequence of hNav1.5 (Q14524 whole entry, looked up): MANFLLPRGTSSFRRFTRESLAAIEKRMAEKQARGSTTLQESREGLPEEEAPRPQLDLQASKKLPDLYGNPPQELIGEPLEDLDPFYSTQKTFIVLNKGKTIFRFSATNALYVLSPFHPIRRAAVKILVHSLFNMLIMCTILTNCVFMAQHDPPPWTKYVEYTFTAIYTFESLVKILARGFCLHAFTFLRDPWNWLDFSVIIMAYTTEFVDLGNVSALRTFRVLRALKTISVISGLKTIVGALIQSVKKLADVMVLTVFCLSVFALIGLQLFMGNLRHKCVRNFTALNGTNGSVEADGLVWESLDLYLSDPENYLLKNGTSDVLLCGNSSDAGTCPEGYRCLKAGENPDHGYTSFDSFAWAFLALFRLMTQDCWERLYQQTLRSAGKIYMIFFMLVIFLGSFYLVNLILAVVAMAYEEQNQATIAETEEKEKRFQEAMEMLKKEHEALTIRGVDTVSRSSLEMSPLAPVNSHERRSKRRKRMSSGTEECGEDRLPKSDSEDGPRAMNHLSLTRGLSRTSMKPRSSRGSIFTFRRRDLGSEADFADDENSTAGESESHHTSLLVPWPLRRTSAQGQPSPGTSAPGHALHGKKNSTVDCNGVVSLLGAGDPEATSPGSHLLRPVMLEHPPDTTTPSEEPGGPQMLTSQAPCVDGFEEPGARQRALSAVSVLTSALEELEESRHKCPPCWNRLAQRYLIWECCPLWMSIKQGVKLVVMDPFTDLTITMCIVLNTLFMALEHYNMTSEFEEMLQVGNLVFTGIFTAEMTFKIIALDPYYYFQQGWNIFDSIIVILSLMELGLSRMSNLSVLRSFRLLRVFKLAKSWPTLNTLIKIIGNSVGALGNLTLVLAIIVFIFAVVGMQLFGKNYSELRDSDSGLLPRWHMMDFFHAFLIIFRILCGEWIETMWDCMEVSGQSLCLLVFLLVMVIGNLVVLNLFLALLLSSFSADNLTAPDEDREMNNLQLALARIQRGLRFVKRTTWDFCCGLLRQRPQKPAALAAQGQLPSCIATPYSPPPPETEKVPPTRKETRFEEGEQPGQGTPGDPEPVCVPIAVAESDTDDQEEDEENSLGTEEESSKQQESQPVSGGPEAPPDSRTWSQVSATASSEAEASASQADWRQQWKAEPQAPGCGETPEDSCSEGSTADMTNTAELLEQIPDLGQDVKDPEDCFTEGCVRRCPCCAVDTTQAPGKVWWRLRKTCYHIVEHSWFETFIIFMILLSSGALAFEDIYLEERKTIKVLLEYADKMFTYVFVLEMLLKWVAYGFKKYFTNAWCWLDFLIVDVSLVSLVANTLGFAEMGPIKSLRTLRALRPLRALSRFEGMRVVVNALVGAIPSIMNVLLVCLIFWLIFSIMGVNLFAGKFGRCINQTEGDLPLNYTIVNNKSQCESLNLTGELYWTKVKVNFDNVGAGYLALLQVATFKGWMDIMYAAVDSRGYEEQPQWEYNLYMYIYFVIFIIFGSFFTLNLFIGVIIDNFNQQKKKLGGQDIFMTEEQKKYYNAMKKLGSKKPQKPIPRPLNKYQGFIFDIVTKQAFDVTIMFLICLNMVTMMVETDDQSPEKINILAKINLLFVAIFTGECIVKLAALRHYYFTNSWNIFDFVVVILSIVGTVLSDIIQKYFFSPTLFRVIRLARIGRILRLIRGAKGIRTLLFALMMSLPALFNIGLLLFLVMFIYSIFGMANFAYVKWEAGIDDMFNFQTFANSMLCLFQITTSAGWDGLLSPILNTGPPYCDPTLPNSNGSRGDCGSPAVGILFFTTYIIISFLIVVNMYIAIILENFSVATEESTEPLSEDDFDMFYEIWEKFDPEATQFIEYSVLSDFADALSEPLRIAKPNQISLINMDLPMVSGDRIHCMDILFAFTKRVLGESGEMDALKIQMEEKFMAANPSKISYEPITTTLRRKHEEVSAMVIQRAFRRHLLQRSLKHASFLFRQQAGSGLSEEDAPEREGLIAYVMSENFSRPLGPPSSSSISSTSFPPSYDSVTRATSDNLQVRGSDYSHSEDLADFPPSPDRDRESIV
Sequence of hNav1.3 (Q9NY46 whole entry, looked up): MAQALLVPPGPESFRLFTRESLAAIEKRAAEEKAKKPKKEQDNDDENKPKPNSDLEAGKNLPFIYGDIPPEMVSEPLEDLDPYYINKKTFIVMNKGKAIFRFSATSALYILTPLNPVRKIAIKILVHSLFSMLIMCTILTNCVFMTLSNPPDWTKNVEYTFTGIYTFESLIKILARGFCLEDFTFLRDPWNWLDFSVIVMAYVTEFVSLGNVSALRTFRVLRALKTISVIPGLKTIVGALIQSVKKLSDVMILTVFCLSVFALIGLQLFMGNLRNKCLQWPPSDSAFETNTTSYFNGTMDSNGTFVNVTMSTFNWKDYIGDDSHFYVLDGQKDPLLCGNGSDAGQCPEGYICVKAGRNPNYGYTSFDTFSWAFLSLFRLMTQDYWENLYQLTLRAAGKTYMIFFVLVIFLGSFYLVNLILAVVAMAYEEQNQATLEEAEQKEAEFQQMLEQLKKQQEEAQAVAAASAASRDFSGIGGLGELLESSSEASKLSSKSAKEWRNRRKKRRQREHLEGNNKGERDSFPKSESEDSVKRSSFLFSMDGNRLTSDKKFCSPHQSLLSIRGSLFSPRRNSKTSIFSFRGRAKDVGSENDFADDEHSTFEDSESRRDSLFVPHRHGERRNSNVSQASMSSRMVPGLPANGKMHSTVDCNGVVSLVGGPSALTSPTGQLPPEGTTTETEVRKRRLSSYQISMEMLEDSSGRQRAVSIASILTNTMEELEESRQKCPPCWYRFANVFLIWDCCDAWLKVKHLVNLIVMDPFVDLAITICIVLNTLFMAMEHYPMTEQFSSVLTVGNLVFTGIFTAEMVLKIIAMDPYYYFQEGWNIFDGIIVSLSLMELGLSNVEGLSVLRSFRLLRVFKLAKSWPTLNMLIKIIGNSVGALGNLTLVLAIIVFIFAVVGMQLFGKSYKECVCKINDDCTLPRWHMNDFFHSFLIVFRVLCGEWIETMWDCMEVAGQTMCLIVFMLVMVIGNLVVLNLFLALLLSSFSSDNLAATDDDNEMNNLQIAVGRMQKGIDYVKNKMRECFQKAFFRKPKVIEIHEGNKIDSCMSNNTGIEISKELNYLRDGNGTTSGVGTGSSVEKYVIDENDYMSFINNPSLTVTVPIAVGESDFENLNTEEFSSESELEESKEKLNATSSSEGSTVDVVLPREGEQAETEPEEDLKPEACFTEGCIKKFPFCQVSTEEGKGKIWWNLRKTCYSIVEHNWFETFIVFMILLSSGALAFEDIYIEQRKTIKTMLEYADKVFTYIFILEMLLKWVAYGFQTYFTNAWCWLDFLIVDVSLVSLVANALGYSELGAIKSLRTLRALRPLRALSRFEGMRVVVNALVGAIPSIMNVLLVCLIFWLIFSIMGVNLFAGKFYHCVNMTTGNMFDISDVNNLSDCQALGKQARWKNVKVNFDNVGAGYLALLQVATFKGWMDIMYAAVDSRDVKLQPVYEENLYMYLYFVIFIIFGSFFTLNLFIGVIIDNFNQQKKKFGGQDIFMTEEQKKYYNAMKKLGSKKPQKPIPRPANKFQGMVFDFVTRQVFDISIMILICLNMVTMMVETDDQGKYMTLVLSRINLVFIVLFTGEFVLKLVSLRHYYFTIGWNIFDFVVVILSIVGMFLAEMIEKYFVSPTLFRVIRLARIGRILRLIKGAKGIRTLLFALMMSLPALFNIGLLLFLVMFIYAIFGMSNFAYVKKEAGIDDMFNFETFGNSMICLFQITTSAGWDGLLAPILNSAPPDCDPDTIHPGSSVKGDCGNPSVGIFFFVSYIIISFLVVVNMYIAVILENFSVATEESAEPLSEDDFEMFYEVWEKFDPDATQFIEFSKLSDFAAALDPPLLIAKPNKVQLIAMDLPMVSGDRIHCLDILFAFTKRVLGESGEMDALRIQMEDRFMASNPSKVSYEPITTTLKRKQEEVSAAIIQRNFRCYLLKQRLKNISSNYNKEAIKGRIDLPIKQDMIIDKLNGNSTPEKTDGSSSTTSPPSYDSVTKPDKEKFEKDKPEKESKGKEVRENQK

With `CC[C@H](C)[C@@H]1NC(=O)[C@@H]2CSSC[C@@H]3NC(=O)[C@H](C(C)C)NC(=O)[C@H](CC(C)C)NC(=O)[C@H](CC(N)=O)NC(=O)[C@@H]4CCCN4C(=O)[C@H](CCCNC(=N)N)NC(=O)[C@H](CSSC[C@H](NC(=O)[C@@H](N)CC(=O)O)C(=O)N[C@@H](CC(C)C)C(=O)NCC(=O)N[C@@H](Cc4ccccc4)C(=O)N[C@@H](CCSC)C(=O)N[C@@H](CCCNC(=N)N)C(=O)N[C@@H](CCCCN)C(=O)N2)NC(=O)[C@H](CSSC[C@@H](C(=O)N[C@@H](CCCCN)C(=O)N[C@@H](Cc2ccc(O)cc2)C(=O)N[C@H](C(=O)N[C@@H](Cc2cccc4ccccc24)C(N)=O)C(C)C)NC(=O)[C@H](Cc2c[nH]c4ccccc24)NC(=O)[C@H](CCCCN)NC(=O)[C@H](Cc2cnc[nH]2)NC(=O)[C@H]([C@@H](C)O)NC(=O)[C@H](CCCNC(=N)N)NC(=O)[C@H](CO)NC3=O)NC(=O)[C@H](CCCCN)NC(=O)[C@H](CC(=O)O)NC(=O)[C@H](CC(N)=O)NC(=O)[C@H](CC(=O)O)NC(=O)[C@@H]2CCCN2C1=O` [compound 80] (H-DCLGFMRKCIPDNDKCCRPNLVCSRTHKWCKYV[1Nal]-NH2; disulfide 2-17, 9-23, 16-30), the IC50 in test [1] (use-dependent, […]) was 30 nM; in test [2] (setting [4]) it was 10.2 µM; in test [3] (use-dependent, […], read-out: IWQ Use Nav1.7), 20 nM.
In the case of `CC[C@H](C)[C@@H]1NC(=O)[C@@H]2CSSC[C@@H]3NC(=O)[C@H](C(C)C)NC(=O)[C@H](CC(C)C)NC(=O)[C@H](CC(N)=O)NC(=O)[C@@H]4CCCN4C(=O)[C@H](CCCNC(=N)N)NC(=O)[C@H](CSSC[C@H](NC(=O)[C@@H](N)CC(=O)O)C(=O)N[C@@H](CC(C)C)C(=O)NCC(=O)N[C@@H](Cc4ccccc4)C(=O)N[C@@H](CCSC)C(=O)N[C@@H](CCCNC(=N)N)C(=O)N[C@@H](CCCCN)C(=O)N2)NC(=O)[C@H](CSSC[C@@H](C(=O)N[C@@H](CCCCN)C(=O)N[C@@H](Cc2c[nH]cn2)C(=O)N[C@H](C(=O)N[C@@H](Cc2ccccc2)C(N)=O)C(C)C)NC(=O)[C@H](Cc2c[nH]c4ccccc24)NC(=O)[C@H](CCCCN)NC(=O)[C@H](Cc2c[nH]cn2)NC(=O)[C@H]([C@@H](C)O)NC(=O)[C@H](CCCNC(=N)N)NC(=O)[C@H](CO)NC3=O)NC(=O)[C@H](CCCCN)NC(=O)[C@H](CC(=O)O)NC(=O)[C@H](CC(N)=O)NC(=O)[C@H](CC(=O)O)NC(=O)[C@@H]2CCCN2C1=O` [compound 380] (H-DCLGFMRKCIPDNDKCCRPNLVCSRTHKWCKHVF-NH2; disulfide 2-17, 9-23, 16-30), the IC50 in test [1] (Table 25, use, […]) is 750 nM; in test [2] (setting [5]), 10.2 µM; in test [3] (setting [6]) it was 600 nM.
In the case of `CC[C@H](C)[C@@H]1NC(=O)[C@@H]2CSSC[C@@H]3NC(=O)[C@H](C(C)C)NC(=O)[C@H](CC(C)C)NC(=O)[C@H](CC(N)=O)NC(=O)[C@@H]4CCCN4C(=O)[C@H](CCCNC(=N)N)NC(=O)[C@H](CSSC[C@H](NC(=O)[C@@H](N)CC(=O)O)C(=O)N[C@@H](CC(C)C)C(=O)NCC(=O)N[C@@H](Cc4ccccc4)C(=O)N[C@@H](CCSC)C(=O)N[C@@H](CCCNC(=N)N)C(=O)N[C@@H](CCCCN)C(=O)N2)NC(=O)[C@H](CSSC[C@@H](C(=O)N[C@@H](CCCCN)C(=O)N[C@@H](Cc2ccc(O)cc2)C(=O)N[C@H](C(=O)N[C@@H](Cc2ccccc2)C(N)=O)C(C)C)NC(=O)[C@H](Cc2c[nH]c4ccccc24)NC(=O)[C@H](CCCNC(=N)N)NC(=O)[C@H](Cc2cnc[nH]2)NC(=O)[C@H]([C@@H](C)O)NC(=O)[C@H](CCCNC(=N)N)NC(=O)[C@H](CO)NC3=O)NC(=O)[C@H](CCCCN)NC(=O)[C@H](CC(=O)O)NC(=O)[C@H](CC(N)=O)NC(=O)[C@H](CC(=O)O)NC(=O)[C@@H]2CCCN2C1=O` [SEQ ID NO: 72, [Arg28]GpTx-1], the IC50 in test [1] (Table 23, use, […]) was 130 nM; in test [2] (IWQ Use Nav1.5 (μM)) it was 8.95 µM; in test [3] (Table 23, use, […], read-out: IWQ Use Nav1.7) it was 80 nM.
For `CC[C@H](C)[C@@H]1NC(=O)[C@@H]2CSSC[C@@H]3NC(=O)[C@H](C(C)C)NC(=O)[C@H](CC(C)C)NC(=O)[C@H](CC(N)=O)NC(=O)[C@@H]4CCCN4C(=O)[C@H](CCCNC(=N)N)NC(=O)[C@H](CSSC[C@H](NC(=O)[C@@H](N)CC(=O)O)C(=O)N[C@@H](CC(C)C)C(=O)NCC(=O)N[C@@H](Cc4ccccc4)C(=O)N[C@@H](CCSC)C(=O)N[C@@H](CCCNC(=N)N)C(=O)N[C@@H](CCCCN)C(=O)N2)NC(=O)[C@H](CSSC[C@@H](C(=O)N[C@@H](CCCCN)C(=O)N[C@@H](Cc2ccc(O)cc2)C(=O)N[C@H](C(=O)N[C@@H](Cc2ccccc2)C(=O)N[C@@H](Cc2c[nH]c4ccccc24)C(N)=O)C(C)C)NC(=O)[C@H](Cc2c[nH]c4ccccc24)NC(=O)[C@H](CCCCN)NC(=O)[C@H](Cc2c[nH]cn2)NC(=O)[C@H]([C@@H](C)O)NC(=O)[C@H](CCCNC(=N)N)NC(=O)[C@H](CO)NC3=O)NC(=O)[C@H](CCCCN)NC(=O)[C@H](CC(=O)O)NC(=O)[C@H](CC(N)=O)NC(=O)[C@H](CC(=O)O)NC(=O)[C@@H]2CCCN2C1=O` [compound 87], the IC50 in test [1] (use-dependent, […]) is 70 nM; in test [2] (setting [4]), 7.87 µM; in test [3] (use-dependent, […], read-out: IWQ Use Nav1.7 (μm)), 50 nM.
For the compound `CC[C@H](C)[C@@H]1NC(=O)[C@@H]2CSSC[C@@H]3NC(=O)[C@H](C(C)C)NC(=O)[C@H](CC(C)C)NC(=O)[C@H](CC(N)=O)NC(=O)[C@@H]4CCCN4C(=O)[C@H](CCCNC(=N)N)NC(=O)[C@H](CSSC[C@H](NC(=O)[C@@H](N)CC(=O)O)C(=O)N[C@@H](CC(C)C)C(=O)NCC(=O)N[C@@H](Cc4ccccc4)C(=O)N[C@@H](CCSC)C(=O)N[C@@H](CCCNC(=N)N)C(=O)N[C@@H](CCCCN)C(=O)N2)NC(=O)[C@H](CSSC[C@@H](C(=O)N[C@@H](Cc2ccccn2)C(=O)N[C@@H](Cc2ccc(O)cc2)C(=O)N[C@H](C(=O)N[C@@H](Cc2ccccc2)C(N)=O)C(C)C)NC(=O)[C@H](Cc2c[nH]c4ccccc24)NC(=O)[C@H](CCCCN)NC(=O)[C@H](Cc2c[nH]cn2)NC(=O)[C@H]([C@@H](C)O)NC(=O)[C@H](CCCNC(=N)N)NC(=O)[C@H](CO)NC3=O)NC(=O)[C@H](CCCCN)NC(=O)[C@H](CC(=O)O)NC(=O)[C@H](CC(N)=O)NC(=O)[C@H](CC(=O)O)NC(=O)[C@@H]2CCCN2C1=O` [compound 364] (H-DCLGFMRKCIPDNDKCCRPNLVCSRTHKWC[2Pal]YVF-NH2; disulfide 2-17, 9-23, 16-30), the IC50 was 16900 nM in test [1] (Table 25, use, […]); 9.49 µM in test [2] (setting [5]); 11000 nM in test [3] (setting [6]).
Consider `CC[C@H](C)[C@@H]1NC(=O)[C@@H]2CSSC[C@@H]3NC(=O)[C@H](C(C)C)NC(=O)[C@H](CC(C)C)NC(=O)[C@H](CC(N)=O)NC(=O)[C@H](CO)NC(=O)[C@H](CCCNC(=N)N)NC(=O)[C@H](CSSC[C@H](NC(=O)[C@@H](N)CC(=O)O)C(=O)N[C@@H](CC(C)C)C(=O)NCC(=O)N[C@@H](Cc4ccccc4)C(=O)N[C@@H](CCSC)C(=O)N[C@@H](CCCNC(=N)N)C(=O)N[C@@H](CCCCN)C(=O)N2)NC(=O)[C@H](CSSC[C@@H](C(=O)N[C@@H](CCCCN)C(=O)N[C@@H](Cc2ccc(O)cc2)C(=O)N[C@H](C(=O)N[C@@H](Cc2ccccc2)C(N)=O)C(C)C)NC(=O)[C@H](Cc2c[nH]c4ccccc24)NC(=O)[C@H](CCCCN)NC(=O)[C@H](Cc2c[nH]cn2)NC(=O)[C@H]([C@@H](C)O)NC(=O)[C@H](CCCNC(=N)N)NC(=O)[C@H](CO)NC3=O)NC(=O)[C@H](CCCCN)NC(=O)[C@H](CC(=O)O)NC(=O)[C@H](CC(N)=O)NC(=O)[C@H](CC(=O)O)NC(=O)[C@@H]2CCCN2C1=O` [compound 181] (H-DCLGFMRKCIPDNDKCCRSNLVCSRTHKWCKYVF-NH2; disulfide 2-17, 9-23, 16-30), for which the IC50 in test [1] (Use) amounted to 31 nM; in test [2] (IonWorks Quattro, Use, read-out: IWQ Use Nav1.5) it was 11.4 µM; in test [3] (Use, read-out: IWQ Use Nav1.7), 88 nM.
`CC[C@H](C)[C@@H]1NC(=O)[C@@H]2CSSC[C@@H]3NC(=O)[C@H](C(C)C)NC(=O)[C@H](CC(C)C)NC(=O)[C@H](CC(N)=O)NC(=O)[C@@H]4CCCN4C(=O)[C@H](CCCNC(=N)N)NC(=O)[C@H](CSSC[C@H](NC(=O)[C@@H](N)CC(=O)O)C(=O)N[C@@H](CC(C)C)C(=O)NCC(=O)N[C@@H](C)C(=O)N[C@@H](CCSC)C(=O)N[C@@H](CCC(=O)O)C(=O)N[C@@H](CCCCN)C(=O)N2)NC(=O)[C@H](CSSC[C@@H](C(=O)N[C@@H](CCCCN)C(=O)N[C@@H](Cc2ccc(O)cc2)C(=O)N[C@H](C(=O)N[C@@H](Cc2ccccc2)C(N)=O)C(C)C)NC(=O)[C@H](Cc2c[nH]c4ccccc24)NC(=O)[C@H](CCCCN)NC(=O)[C@H](Cc2c[nH]cn2)NC(=O)[C@H]([C@@H](C)O)NC(=O)[C@H](CCCNC(=N)N)NC(=O)[C@H](CO)NC3=O)NC(=O)[C@H](CCCCN)NC(=O)[C@H](CC(=O)O)NC(=O)[C@H](CC(N)=O)NC(=O)[C@H](CC(=O)O)NC(=O)[C@@H]2CCCN2C1=O` [compound 436] (H-DCLGAMEKCIPDNDKCCRPNLVCSRTHKWCKYVF-NH2; disulfide 2-17, 9-23, 16-30): the IC50 in test [1] (use-dependent block, hNav1.3) is over 5000 nM; in test [2] (IonWorks Quattro, use-dependent block, hNav1.5, read-out: IWQ Use Nav1.5), over 5 µM; in test [3] (use-dependent block, hNav1.7, read-out: IWQ Use Nav1.7), over 5000 nM.
